Our source for the GI50 values is patent US11602534B2, “Pyrimidine derivative kinase inhibitors” (HEFEI INSTITUTES OF PHYSICAL SCIENCE, CHINESE ACADEMY OF …, priority 2017, dated 2023).

Test [1] has as its system BaF3. Kind of test: Proliferation of BaF3 cells, CCK8 cell viability assay. The settings on record: Mus musculus, 72 hours. In kind it is cell-based. The source says: (§1) In this example the following cells were used: […] (purchased from ATCC), mouse P210-BaF3 (stably expressing BCR-ABL mutant activated kinase), mouse P210/T315I-BaF3 (stably expressing BCR-ABL/T315I mutant activated kinase), mouse FLT3-ITD-BaF3 (stably expressing FLT3/ITD mutant activated kinase), mouse TEL-FLT3-BaF3 (stably expressing FLT3 kinase), mouse TEL-cKIT-BaF3 (stably expressing cKIT kinase), mouse BaF3-tel/T670I-cKit (stably expressing cKIT/T670I mutant activated kinase), mouse Tel-VEGFR2-BaF3 (stably expressing VEGFR2 kinase), mouse Tel-PDGFRα-BaF3 (stably expressing PDGFRα kinase), mouse Tel-PDGFRβ-BaF3 (stably expressing PDGFRβ kinase), mouse Tel-RET-BaF3 (stably expressing RET kinase). The above cell lines were all constructed by our laboratory according to the following method: the kinase region sequences of human P210, P210/T315I, FLT3/ITD, FLT3, cKIT, cKIT/T670I, VEGFR2, PDGFRα, PDGFRβ, RET were respectively amplified by PCR, and inserted into MSCV-Puro vectors having N-terminal TEL or TPR fragments (Clontech). The vectors were stably transfected into mouse BaF3 cells by means of retrovirus, and the growth factor IL-3 were removed, eventually obtaining cell lines that depend on transferred protein P210, P210/T315I, FLT3/ITD, FLT3, cKIT, cKIT/T670I, VEGFR2, PDGFRα, PDGFRβ, or RET.
(§2) GI50 (unit: μM) was calculated by quantifying the number of living cells based on quantitative measurement of reductive dehydrogenase in living cells with CCK8 cell viability assay kit (Bestbio, China).

Test [2] has as its system Tel-cKit-BaF3. Description: Proliferation of Tel-cKit-BaF3 cells, CCK8 cell viability assay. In kind it is cell-based, mouse. The conditions noted are these: Mus musculus; 72 hours, CCK8; stably expressing cKIT kinase.
Description: as §1, §2

In test [3] the test system is Tel-cKit/T670I-BaF3. Kind of test: Proliferation of Tel-cKit/T670I-BaF3 cells, CCK8 cell viability assay. In kind it is cell-based. The conditions noted are these: Mus musculus, 72 hours, stably expressing cKIT/T670I.
Description: as §1, §2
For orientation: Tetrazolium assays rely on reduction of a dye to a coloured formazan, in cell work by metabolically active cells.

Test [4] concerns Tel-FLT3-BaF3. Kind of test: Proliferation of Tel-FLT3-BaF3 cells, CCK8 cell viability assay. In kind it is cell-based. The settings on record: Mus musculus, 72 hours, stably expressing FLT3 kinase.
Description: as §1, §2

The test system of test [5] is FLT3-ITD-BaF3. Kind of test: Proliferation of FLT3-ITD-BaF3 cells, CCK8 cell viability assay. In kind it is cell-based. The conditions noted are these: Mus musculus, 72 hours, stably expressing FLT3/ITD.
Description: as §1, §2

Test [6] has as its system TEL-PDGFRα-BaF3. Kind of test: Proliferation of TEL-PDGFRα-BaF3 cells, CCK8 cell viability assay. The conditions noted are these: Mus musculus, 72 hours, stably expressing PDGFRα kinase. It counts as cell-based.
Description: as §1, §2

For test [7], the system named is TEL-PDGFRβ-BaF3. Description: Proliferation of TEL-PDGFRβ-BaF3 cells, CCK8 cell viability assay. In kind it is cell-based. The settings on record: Mus musculus, 72 hours, stably expressing PDGFRβ kinase.
Description: as §1, §2

Test [8] relates to TEL-VEGFR2-BaF3. Kind of test: Proliferation of TEL-VEGFR2-BaF3 cells, CCK8 cell viability assay. The conditions noted are these: Mus musculus, 72 hours, stably expressing VEGFR2 kinase. In kind it is cell-based.
Description: as §1, §2

The test system of test [9] is P210-BaF3. Kind of test: Proliferation of P210-BaF3 cells, CCK8 cell viability assay. It counts as cell-based. The conditions noted are these: Mus musculus, 72 hours, stably expressing BCR-ABL mutant activated kinase.
Description: as §1, §2

Test [10] concerns P210/T315I-BaF3. Kind of test: Proliferation of P210/T315I-BaF3 cells, CCK8 cell viability assay. In kind it is cell-based. The conditions noted are these: Mus musculus, 72 hours, stably expressing BCR-ABL/T315I.
Description: as §1, §2

Take `CC(=O)Nc1cc(Oc2ccc(NC(=O)Cc3cc(Cl)ccc3C(F)(F)F)cc2)ncn1` [Example 2, N-[4-(6-acetylamino-pyrimidin-4-yloxy)-phenyl]-2-(5-chloro-2-trifluoromethyl-phenyl)-acetamide]: the concentration for 50% growth inhibition (GI50) (as a rule, the concentration giving 50% growth inhibition) is over 10000 nM in [1]; 6930 nM in [2]; over 10000 nM in test [3]; 744 nM in [4]; 158 nM in test [5]; 102 nM in test [6]. The GI50 in test [7] amounted to 156 nM; in [8] it was 2830 nM.

On to `CC(=O)Nc1cc(Oc2ccc(CC(=O)Nc3cccc(C(F)(F)F)c3)cc2)ncn1` [Example 33, 2-[4-(6-acetylamino-pyrimidin-4-yloxy)-phenyl]-N-(3-trifluoromethyl-phenyl)-acetamide], for which the GI50 is over 10000 nM in test [1]; 301 nM in test [2]; 81 nM in test [3]; 4 nM in test [4]; 10 nM in test [5]; 1 nM in test [6]. Besides, the GI50 stood at 4 nM in test [7] and 13 nM in test [8].

Regarding `CC(=O)Nc1cc(Oc2ccc(CC(=O)Nc3cccc(Cl)c3C(F)(F)F)cc2)ncn1` [Example 35, 2-[4-(6-acetylamino-pyrimidin-4-yloxy)-phenyl]-N-(3-chloro-2-trifluoromethyl-phenyl)-acetamide], the GI50 in [1] was over 10000 nM; in [9], over 10000 nM; in test [2] it was over 10000 nM; in test [3] it was 6600 nM; in [4], 925 nM; in test [5], 67 nM. For the same molecule, the values for the GI50 in [6] and in [7] were 203 nM and 406 nM, respectively.

In the case of `CC(=O)Nc1cc(Oc2ccc(CC(=O)Nc3ccc(C(F)(F)F)cc3)cc2)ncn1` [Example 36, 2-[4-(6-acetylamino-pyrimidin-4-yloxy)-phenyl]-N-(4-trifluoromethyl-phenyl)-acetamide], the GI50 was over 10000 nM in test [1]; 589 nM in test [2]; 36 nM in test [3]; 17 nM in [4]; 4 nM in [5]; under 1 nM in [6]. The GI50 in test [7] came to 2 nM.

Turning to `CC(=O)Nc1cc(Oc2ccc(CC(=O)Nc3ccccc3)cc2)ncn1` [Example 37, 2-[4-(6-acetylamino-pyrimidin-4-yloxy)-phenyl]-N-phenyl-acetamide], the GI50 in [1] is over 10000 nM; in test [9] it was over 10000 nM; in test [2] it was over 10000 nM; in test [3], 4030 nM; in test [4], 2270 nM; in test [5], 162 nM. The GI50 in [6] came to 5 nM; in test [7], 4 nM.

Regarding `CC(=O)Nc1cc(Oc2ccc(CC(=O)Nc3ccc(C)cc3C(F)(F)F)cc2)ncn1` [Example 38, 2-[4-(6-acetylamino-pyrimidin-4-yloxy)-phenyl]-N-(4-methyl-2-trifluoromethyl-phenyl)-acetamide], the GI50 was over 10000 nM in test [1]; over 10000 nM in test [9]; over 10000 nM in [2]; 8310 nM in test [3]; 632 nM in test [4]; 213 nM in [5]. The GI50 is 35 nM in test [6], 466 nM in [7] and 2850 nM in [8].

For the molecule `CC(=O)Nc1cc(Oc2ccc(CC(=O)N(C)c3ccc(Br)cc3)cc2)ncn1` [Example 39, 2-[4-(6-acetylamino-pyrimidin-4-yloxy)-phenyl]-N-(4-bromo-phenyl)-N-methyl-acetamide], the GI50 in [1] is over 10000 nM; in [9], over 10000 nM; in [2], 7880 nM; in [3], over 10000 nM; in [4], 347 nM; in test [5] it was 180 nM. The GI50 in [6] worked out at 57 nM; in test [7], 134 nM; in [8] it was 4260 nM.

Consider `Cc1ccc(NC(=O)Nc2ccc(Oc3cc(N(C)CCO)ncn3)cc2)cc1C(F)(F)F` [Example 87, 1-(4-{6-[(2-hydroxy-ethyl)-methyl-amino]-pyrimidin-4-yloxy}-phenyl)-3-(4-methyl-3-trifluoromethyl-phenyl)-urea], for which the GI50 in test [1] was 7210 nM; in test [10], 8490 nM; in test [2], 354 nM; in [3] it was 8850 nM; in test [4], 169 nM; in [5], 58 nM. In addition, the figures for the GI50 in test [6], in [7] and in test [8] were 26 nM, 115 nM and 398 nM, respectively.

On to `Cc1ccc(NC(=O)Nc2ccc(Oc3cc(N4CCN[C@H](C)C4)ncn3)cc2)cc1C(F)(F)F` [Example 106, (R)-1-(4-methyl-3-(trifluoromethyl)phenyl)-3-(4-((6-(3-methylpiperazin-1-yl)pyrimidin-4-yl)oxy)phenyl)urea], for which the GI50 in test [1] stood at 8920 nM; in test [2], 1730 nM; in [3], 990 nM; in test [4] it was 460 nM; in test [5], 300 nM; in [6] it was 21 nM. Besides, the GI50 in test [7] is 136 nM; in [8], 350 nM.

With `CC(=O)Nc1cc(Oc2ccc(NC(=O)Cc3ccccc3C)cc2)ncn1` [Example 161, N-[4-(6-acetylamino-pyrimidin-4-yloxy)-phenyl]-2-(2-methyl-phenyl)-acetamide], the GI50 in test [1] was over 10000 nM; in test [9] it was over 10000 nM; in [10], over 10000 nM; in test [2], 7010 nM; in [3], over 10000 nM; in test [4], 228 nM. In addition, the GI50 in test [5] stood at 74 nM; in test [6] it was 24 nM; in test [7], 116 nM.

`CC(=O)Nc1cc(Oc2ccc(NC(=O)Cc3ccc4ccccc4c3)cc2)ncn1` [Example 162, N-[4-(6-acetylamino-pyrimidin-4-yloxy)-phenyl]-2-naphth-2-yl-acetamide]: the GI50 in test [1] was over 10000 nM; in test [9], over 10000 nM; in test [10] it was over 10000 nM; in test [2], 313 nM; in test [3], 915 nM; in test [4] it was 113 nM. For the same molecule, the GI50 in test [5] is 19 nM; in [6] it was 4 nM; in test [7], 6 nM.

With `CC(=O)Nc1cc(Oc2ccc(NC(=O)Cc3cccc4ccccc34)cc2)ncn1` [Example 163, N-[4-(6-acetylamino-pyrimidin-4-yloxy)-phenyl]-2-naphth-1-yl-acetamide], the GI50 in test [1] was over 10000 nM; in [9], over 10000 nM; in test [10], 9070 nM; in [2] it was 924 nM; in test [3] it was 3270 nM; in [4] it was 25 nM. The GI50 in [5] came to 11 nM; in [6] it was 5 nM; in test [7], 14 nM.

As to `CC(=O)Nc1cc(Nc2ccc(NC(=O)Cc3ccccc3C(F)(F)F)cc2)ncn1` [Example 164, N-[4-(6-acetylamino-pyrimidin-4-ylamino)-phenyl]-2-(2-trifluoromethyl-phenyl)-acetamide], the GI50 was over 10000 nM in [1]; over 10000 nM in test [9]; over 10000 nM in [10]; over 10000 nM in test [2]; over 10000 nM in [3]; 1410 nM in [4]. Besides, the GI50 came to 444 nM in [5], 84 nM in [6] and 938 nM in [7].

For the molecule `CC(=O)Nc1cc(Nc2ccc(NC(=O)Cc3cccc(C(F)(F)F)c3)cc2)ncn1` [Example 165, N-[4-(6-acetylamino-pyrimidin-4-ylamino)-phenyl]-2-(3-trifluoromethyl-phenyl)-acetamide], the GI50 in test [1] is over 10000 nM; in test [9], over 10000 nM; in test [10] it was over 10000 nM; in test [2] it was 462 nM; in [3], 4610 nM; in test [4], 52 nM. Further, the GI50 in [5] was 21 nM; in test [6], 1 nM; in test [7] it was 12 nM.
